Experimental data published in patent US9302999B2, “Substituted triazoles as herbicides” (E. I. DU PONT DE NEMOURS AND COMPANY, priority 2012, dated 2016).

Legend:
Type in all cases: in vivo
[1] = tested on: barnyardgrass (Echinochloa crus-galli); assay: Test A pre-/postemergence: barnyardgrass; conditions: for Barnyardgrass plant response rating: Postemergence; for Plant response rating, Barnyardgrass: Preemergence
How it was run: (§1)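 Whole-plant greenhouse assay in loam/sand. Preemergence directed soil spray plus simultaneous postemergence spray (one- to two-leaf stage, 2–10 cm). Rated visually ~10 days later, 0 = no effect, 100 = complete control.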

[2] = tested on: crabgrass, large (large crabgrass, Digitaria sanguinalis); assay: Test A pre-/postemergence: crabgrass, large; conditions: for Crabgrass, Large plant response rating: Postemergence; for Plant response rating, Crabgrass, Large: Preemergence
How it was run: as §1

[3] = tested on: foxtail, giant (giant foxtail, Setaria faberii); assay: Test A pre-/postemergence: foxtail, giant; conditions: for Foxtail, Giant plant response rating: Postemergence; for Plant response rating, Foxtail, Giant: Preemergence
How it was run: as §1

[4] = tested on: morningglory (Ipomoea spp.); assay: Test A pre-/postemergence: morningglory; conditions: for Morningglory plant response rating: Postemergence; for Plant response rating, Morningglory: Preemergence
How it was run: as §1

[5] = tested on: pigweed (Amaranthus retroflexus); assay: Test A pre-/postemergence: pigweed; conditions: for Pigweed plant response rating: Postemergence; for Plant response rating, Pigweed: Preemergence
How it was run: as §1

[6] = tested on: velvetleaf (Abutilon theophrasti); assay: Test A pre-/postemergence: velvetleaf; conditions: for Velvetleaf plant response rating: Postemergence; for Plant response rating, Velvetleaf: Preemergence
How it was run: as §1

[7] = tested on: wheat (Triticum aestivum); assay: Test A pre-/postemergence: wheat; conditions: for Wheat plant response rating: Postemergence; for Plant response rating, Wheat: Preemergence
How it was run: as §1

corn (Zea mays) = assay: Test A pre-/postemergence: corn; conditions: for Corn plant response rating: Postemergence; for Plant response rating, Corn: Preemergence
How it was run: as §1

rice (Oryza sativa) = assay: Test C flooded paddy test: rice; conditions: scale 0 to 100 (0 no effect, 100 complete control)
Source text: (§2) Plant species in the flooded paddy test consisted of rice (Oryza sativa), sedge, umbrella (small-flower umbrella sedge, Cyperus difformis), ducksalad (Heteranthera limosa) and barnyardgrass (Echinochloa crus-galli) grown to the 2-leaf stage for testing. At time of treatment, test pots were flooded to 3 cm above the soil surface, treated by application of test compounds directly to the paddy water, and then maintained at that water depth for the duration of the test.
(§3) Treated plants and controls were maintained in a greenhouse for 13 to 15 days, after which time all species were compared to controls and visually evaluated. Plant response ratings, summarized in Table C, are based on a scale of 0 to 100 where 0 is no effect and 100 is complete control. A dash (-) response means no test result.

[8] = tested on: sedge, umbrella (small-flower umbrella sedge, Cyperus difformis); assay: Test C flooded paddy test: sedge, umbrella; conditions: scale 0 to 100 (0 no effect, 100 complete control)
Source text: as §2, §3

[9] = tested on: ducksalad (Heteranthera limosa); assay: Test C flooded paddy test: ducksalad; conditions: scale 0 to 100 (0 no effect, 100 complete control)
How it was run: (§4)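 Plants were grown to the 2-leaf stage, pots flooded to 3 cm above soil, and test compounds applied directly to the paddy water, with that depth held throughout. After 13 to 15 days in a greenhouse, injury was visually rated against controls on a 0 (no effect) to 100 (complete control) scale.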

[10] = tested on: barnyardgrass (Echinochloa crus-galli); assay: Test C flooded paddy test: barnyardgrass; conditions: scale 0 to 100 (0 no effect, 100 complete control)
How it was run: as §4

[11] = 125 g ai/ha, 0 to 100 scale, 0 is no effect, 100 is complete control
[12] = 500 g ai/ha, visual rating on 0 to 100 scale (0 no effect, 100 complete control), approximately ten days
[13] = 125 g ai/ha, 0 to 100 scale (0 no effect, 100 complete control)
[14] = 500 g ai/ha, 0 to 100 scale, 0 is no effect, 100 is complete control
[15] = Flood (flooded paddy test), 125 g ai/ha, visual rating after 13 to 15 days
[16] = Flood (flooded paddy test), 250 g ai/ha, visual rating after 13 to 15 days
[17] = Flood (flooded paddy test), 62 g ai/ha, visual rating after 13 to 15 days

COc1nn(-c2ccc(C(F)(F)F)cc2)nc1C(O)c1ccnc(C(F)(F)F)c1 (stereo not drawn) [Compound 78]
Barnyardgrass plant response rating [1, 11]: 0 | Barnyardgrass plant response rating [1, 12]: 10 | Plant response rating, Barnyardgrass [1, 13]: 0 | Plant response rating, Barnyardgrass [1, 14]: 20 | Crabgrass, Large plant response rating [2, 11]: 10 | Crabgrass, Large plant response rating [2, 12]: 20 | Plant response rating, Crabgrass, Large [2, 13]: 60 | Plant response rating, Crabgrass, Large [2, 14]: 80 | Foxtail, Giant plant response rating [3, 11]: 10 | Foxtail, Giant plant response rating [3, 12]: 30 | Plant response rating, Foxtail, Giant [3, 13]: 20 | Plant response rating, Foxtail, Giant [3, 14]: 70 | Morningglory plant response rating [4, 11]: 0 | Morningglory plant response rating [4, 12]: 40 | Plant response rating, Morningglory [4, 13]: 0 | Plant response rating, Morningglory [4, 14]: 10 | Pigweed plant response rating [5, 11]: 50 | Pigweed plant response rating [5, 12]: 90 | Plant response rating, Pigweed [5, 13]: 60 | Plant response rating, Pigweed [5, 14]: 70 | Velvetleaf plant response rating [6, 11]: 10 | Velvetleaf plant response rating [6, 12]: 20 | Plant response rating, Velvetleaf [6, 13]: 10 | Plant response rating, Velvetleaf [6, 14]: 20 | Wheat plant response rating [7, 11]: 0 | Wheat plant response rating [7, 12]: 0 | Plant response rating, Wheat [7, 13]: 0 | Plant response rating, Wheat [7, 14]: 0 | Corn plant response rating (corn (Zea mays); [11]): 0 | Corn plant response rating (corn (Zea mays); [12]): 10 | Plant response rating, Corn (corn (Zea mays); [13]): 0 | Plant response rating, Corn (corn (Zea mays); [14]): 0 | Plant response rating, Rice (rice (Oryza sativa); [15]): 0 | Plant response rating, Rice (rice (Oryza sativa); [16]): 0 | Plant response rating, Rice (rice (Oryza sativa); Flood, 31 g ai/ha): 0 | Plant response rating, Rice (rice (Oryza sativa); Flood, 62 g ai/ha): 0 | Plant response rating, Sedge, Umbrella [8, 15]: 0 | Plant response rating, Sedge, Umbrella [8, 16]: 0 | Plant response rating, Sedge, Umbrella ([8]; Flood, 31 g ai/ha): 0 | Plant response rating, Sedge, Umbrella ([8]; Flood, 62 g ai/ha): 0 | Plant response rating, Ducksalad [9, 15]: 0 | Plant response rating, Ducksalad [9, 16]: 0 | Plant response rating, Ducksalad ([9]; Flood, 31 g ai/ha): 0 | Plant response rating, Ducksalad ([9]; Flood, 62 g ai/ha): 0 | Plant response rating, Barnyardgrass [10, 15]: 0 | Plant response rating, Barnyardgrass [10, 16]: 20 | Plant response rating, Barnyardgrass ([10]; Flood, 31 g ai/ha): 0 | Plant response rating, Barnyardgrass ([10]; Flood, 62 g ai/ha): 0

Cc1nn(-c2ccc(Cl)nc2)nc1C(=O)c1cccc(C(F)(F)F)c1 [Compound 72]
Barnyardgrass plant response rating [1, 11]: 0 | Barnyardgrass plant response rating [1, 12]: 10 | Plant response rating, Barnyardgrass [1, 13]: 0 | Plant response rating, Barnyardgrass [1, 14]: 0 | Crabgrass, Large plant response rating [2, 11]: 0 | Crabgrass, Large plant response rating [2, 12]: 10 | Plant response rating, Crabgrass, Large [2, 13]: 0 | Plant response rating, Crabgrass, Large [2, 14]: 10 | Foxtail, Giant plant response rating [3, 11]: 0 | Foxtail, Giant plant response rating [3, 12]: 10 | Plant response rating, Foxtail, Giant [3, 13]: 0 | Plant response rating, Foxtail, Giant [3, 14]: 20 | Morningglory plant response rating [4, 11]: 0 | Morningglory plant response rating [4, 12]: 10 | Plant response rating, Morningglory [4, 13]: 0 | Plant response rating, Morningglory [4, 14]: 0 | Pigweed plant response rating [5, 11]: 10 | Pigweed plant response rating [5, 12]: 70 | Plant response rating, Pigweed [5, 13]: 0 | Plant response rating, Pigweed [5, 14]: 10 | Velvetleaf plant response rating [6, 11]: 0 | Velvetleaf plant response rating [6, 12]: 10 | Plant response rating, Velvetleaf [6, 13]: 0 | Plant response rating, Velvetleaf [6, 14]: 0 | Wheat plant response rating [7, 11]: 0 | Wheat plant response rating [7, 12]: 0 | Plant response rating, Wheat [7, 13]: 0 | Plant response rating, Wheat [7, 14]: 0 | Corn plant response rating (corn (Zea mays); [11]): 0 | Corn plant response rating (corn (Zea mays); [12]): 10 | Plant response rating, Corn (corn (Zea mays); [13]): 0 | Plant response rating, Corn (corn (Zea mays); [14]): 0 | Plant response rating, Rice (rice (Oryza sativa); [17]): 0 | Plant response rating, Rice (rice (Oryza sativa); [15]): 0 | Plant response rating, Rice (rice (Oryza sativa); [16]): 0 | Plant response rating, Rice (rice (Oryza sativa); Flood, 31 g ai/ha): 0 | Plant response rating, Sedge, Umbrella [8, 17]: 0 | Plant response rating, Sedge, Umbrella [8, 15]: 0 | Plant response rating, Sedge, Umbrella [8, 16]: 0 | Plant response rating, Sedge, Umbrella ([8]; Flood, 31 g ai/ha): 0 | Plant response rating, Ducksalad [9, 17]: 0 | Plant response rating, Ducksalad [9, 15]: 0 | Plant response rating, Ducksalad [9, 16]: 0 | Plant response rating, Ducksalad ([9]; Flood, 31 g ai/ha): 0 | Plant response rating, Barnyardgrass [10, 17]: 0 | Plant response rating, Barnyardgrass [10, 15]: 0 | Plant response rating, Barnyardgrass [10, 16]: 0 | Plant response rating, Barnyardgrass ([10]; Flood, 31 g ai/ha): 0
